PMC12718081 (ACS Infectious Diseases, 2025)
Values joined by “and” are separate entries in the source; they are usually repeats but may differ in a detail not shown here. Identical values can stand only once. “Also recorded” adds a separate entry of the source. Like-named read-outs stand apart in the source and are kept apart here.

Legend:
juvenile schistosomes = test: Microscopy analysis of juvenile morphology and motility (viability score 0-3); settings: 10 μM, 72 h; for number of juvenile worms with viability score 0 / number of juvenile worms with viability score 1 / number of juvenile worms with viability score 2 / number of juvenile worms with viability score 3: Table S1
Sm.TRPMPZQ (wild-type) = Sm.TRPMPZQ (wild-type) (Schistosoma mansoni, UniProt A0A5K4F0X5); test: Ca2+ reporter (FLIPR) activation assay, wild-type Sm.TRPMPZQ in HEK293 cells; type: cell-based
Method: (§1) The Ca^2+ reporter assay was performed using a Fluorescence Imaging Plate Reader (FLIPR) system, as described in the Supporting Information. […]
(§2) The half-maximal inhibitory
(§3) Windows (GraphPad Software, Boston, MA, USA; www.graphpad.com). […]
(§4) with DMSO as a negative control. […]
(§5) reader. […] The fluorescence
(§6) Untransfected HEK293 cells were used as a control.
(§7) 10% fetal bovine serum (FBS). […]
(§8) atmosphere containing 5% CO₂. Following incubation, the growth medium was removed and […]
buffer containing 2.5 mM probenecid in HBSS (with Ca²⁺ and Mg²⁺), 20 mM HEPES, 0.3% BSA (Sigma, A7030), and 0.03% L-ascorbic acid (Sigma). Cells were incubated for 40 minutes at 37 °C and subsequently for 20 minutes at room temperature. […]
prepared in assay buffer without dye and probenecid and dispensed into separate flat-bottom 384-well plates. Calcium flux measurements were performed at room temperature using a […]
(§9) instrument (Molecular Devices). Baseline fluorescence was recorded for 20 seconds, followed by the addition of 5 µL of each drug solution, after which fluorescence was measured continuously for 250 seconds. […]

Sm.TRPMMCLZ = test: Ca2+ reporter (FLIPR) activation assay, Sm.TRPMMCLZ in HEK293 cells; type: cell-based, Schistosoma mansoni; settings: at the tested concentrations, data not shown
Method: (§10) Finally, selectivity for Sm.TRPMPZQ was assessed by profiling responses on the F. hepatica (Fh.TRPMPZQ) and E. granulosus (Eg.TRPMPZQ) TRPMPZQ orthologs, as well as the schistosome TRPM paralog Sm.TRPMMCLZ, a distinct TRPM channel activated by meclonazepam. Meclonazepam is an anthelmintic benzodiazepine known for its toxicity to juvenile schistosome worms.
as §1, §2, §3, §4, §5, §6, §7, §8
(§11) buffer containing 2.5 mM probenecid in HBSS (with Ca²⁺ and Mg²⁺), 20 mM HEPES, 0.3% BSA (Sigma, A7030), and 0.03% L-ascorbic acid (Sigma). Cells were incubated for 40 minutes at 37 °C and subsequently for 20 minutes at room temperature. A total of seven PZQ derivatives were tested, using racemic PZQ included as a positive control on each assay plate. Drug dilutions were prepared in assay buffer without dye and probenecid and dispensed into separate flat-bottom 384-well plates. Calcium flux measurements were performed at room temperature using a […]
as §9

Fh.TRPMPZQ = test: Ca2+ reporter (FLIPR) activation assay, Fh.TRPMPZQ in HEK293 cells; type: cell-based, Fasciola hepatica; settings: at the tested concentrations, data not shown
Method: as §10, §1, §2, §3, §4, §5, §6, §7, §8, §11, §9

in vitro = settings: human, HepG2 cytotoxicity (CC50)
Method: (§12) Next, we conducted a more detailed investigation by performing dose–response assays with each compound on HepG2 hepatic epithelial cells, as the liver is one of the major organs affected in intestinal schistosomiasis.
(§13) More details are provided in the Supporting Information.
(§14) Adult worm ex-vivo high-content assay
(§15) Male and female worms were placed in 96-well microplates (one worm per well) and incubated […]
(§16) to 72 hours. Brightfield timelapse images (100 images, 0.3-second intervals) were captured from each well before, immediately after, and every 24 hours following compound addition using an ImageXpress Micro Confocal High Content System equipped with a 2x objective. Image analysis was performed through a custom pipeline in CellProfiler software (v. 4.2.1, Windows OS).57 During analysis, the area of each worm and its displacement between consecutive image captures (i.e., images taken at successive time points) were measured using the parameters “Area” and “False Negative Rate” from the MeasureObjectSizeShape and MeasureObjectOverlap modules, respectively. These measurements were then modeled by a multilevel generalized linear statistical model. The effects of the experimental treatments on parasite motility were estimated with the integrated nested Laplace approximation (INLA) method, available in the INLA package of R (https://www.r-inla.org). The half-maximal inhibitory concentration (EC50) of each compound was calculated based on the worms' estimated motility using the […] 4-parameter logistic equation in GraphPad Prism version 9.0.0 for Windows (GraphPad Software, Boston, MA, USA; www.graphpad.com). […]
(§17) either at a fixed concentration (10 µM) or across a range of concentrations (0.0001–300 µM), or with DMSO as a negative control. Two hours before the end of the experiment (t0), a resazurin solution (final concentration: 0.01 mg/mL) was added to each well and the first fluorescence […]
(§18) reader. At the end of the incubation (t1), a second reading was performed. The fluorescence attributed solely to resorufin was measured by subtracting the fluorescence readings at t0 from those at t1. The results were expressed as percentual cell viability considering negative control

[1] = system: HepG2 hepatic epithelial cells; test: in vitro; settings: for Selectivity Index (CC50/EC50), Male: HepG2 CC50 / male worm motility EC50, 48 h
Method: as §12, §13, §14, §15, §16, §17, §18

[2] = system: juvenile schistosomes (21 days p.i.); test: XTT juvenile viability assay; type: cell-based, Schistosoma mansoni; settings: 100 μM, 48 h
[3] = system: adult schistosomes (male and female worms); test: Adult worm ex vivo high-content image-based motility assay; type: cell-based, Schistosoma mansoni
Method: Adult schistosomes’ motility was determined using a high-content assay previously developed by our group, , with images analyzed in CellProfiler software. More details are provided in the Supporting Information.
as §14
(§19) “Area” and “False Negative Rate” from the MeasureObjectSizeShape and MeasureObjectOverlap modules, respectively. These measurements were then modeled by a multilevel generalized linear statistical model. The effects of the experimental treatments on […]
as §2, §3
with DMSO as a negative control.

Eg.TRPMPZQ = Eg.TRPMPZQ (Echinococcus granulosus, UniProt W6UVV9); test: cell-based; settings: HEK293, Ca2+ reporter, mean ± standard deviation; for Emax: read-out: Bmax, Eg.TRPMPZQ activation
S. mansoni schistosomula = test: Roboworm high-content screening assay on schistosomula (motility and phenotype scores); type: cell-based, Schistosoma mansoni; settings: 25 μM, 72 h
Method: All PZQ derivatives were synthesized in the racemic form and evaluated as such. The compounds were initially screened at 10 μM against S. mansoni schistosomula using the Roboworm high-content screening assay , and were declared hits or nonhits based on their effect on parasites’ motility and phenotype scores after 72 h of incubation. As none of the compounds were considered hits at this concentration, we performed a titration from 6.25 to 50 μM (Figure S27).
DMSO was included as a negative control. Compounds were considered hits if both their motility and phenotype scores were lower than −0.35 and −0.15, respectively (region delimited by the dashed lines). In red, PZQ analogues selected for further analysis.
For the collection of schistosomula, B. glabrata snails infected with S. mansoni were shed for 2 h under light at 26 °C. Cercariae were collected, mechanically transformed into schistosomula as previously described.
DMSO (0.625%, v/v) was included as a negative control. Z′ values for the assay were calculated to be 0.542 for phenotype and 0.361 for motility. […]
(§20) Auranofin (AUR) was included at 10 µM as positive control. DMSO was included as a negative control. Compounds were considered hits if both their motility and phenotype scores were lower than -0.35 and -0.15, respectively (region delimited by the […]

Sm.TRPMPZQ = test: Ca2+ reporter assay in antagonist mode (block of PZQ activation of Sm.TRPMPZQ); type: cell-based, Schistosoma mansoni; settings: preincubation 1 nM-100 μM for 10 min, data not shown
Method: The Ca^2+ reporter assay was performed using a Fluorescence Imaging Plate Reader (FLIPR) system, as described in the Supporting Information.
as §14, §19, §2, §3, §4, §5, §6, §7, §8, §11, §9
as §20, with “schistosomula after 72h of incubation using the Roboworm high-content screening assay. Auranofin” for “Auranofin”
(1 picture or pasted object on this page, not shown here)

[4] = Schistosoma mansoni, 24 h, male adult worms, 24 h, single experiment or geometric mean, read-out: Male worm motility inhibition (EC50)
[5] = Schistosoma mansoni, 48 h, male adult worms, 48 h, single experiment or geometric mean, read-out: Male worm motility inhibition (EC50)
[6] = Schistosoma mansoni, 72 h, male adult worms, 72 h, single experiment or geometric mean, read-out: Male worm motility inhibition (EC50)

Chain of Eg.TRPMPZQ (W6UVV9 entry or part of it): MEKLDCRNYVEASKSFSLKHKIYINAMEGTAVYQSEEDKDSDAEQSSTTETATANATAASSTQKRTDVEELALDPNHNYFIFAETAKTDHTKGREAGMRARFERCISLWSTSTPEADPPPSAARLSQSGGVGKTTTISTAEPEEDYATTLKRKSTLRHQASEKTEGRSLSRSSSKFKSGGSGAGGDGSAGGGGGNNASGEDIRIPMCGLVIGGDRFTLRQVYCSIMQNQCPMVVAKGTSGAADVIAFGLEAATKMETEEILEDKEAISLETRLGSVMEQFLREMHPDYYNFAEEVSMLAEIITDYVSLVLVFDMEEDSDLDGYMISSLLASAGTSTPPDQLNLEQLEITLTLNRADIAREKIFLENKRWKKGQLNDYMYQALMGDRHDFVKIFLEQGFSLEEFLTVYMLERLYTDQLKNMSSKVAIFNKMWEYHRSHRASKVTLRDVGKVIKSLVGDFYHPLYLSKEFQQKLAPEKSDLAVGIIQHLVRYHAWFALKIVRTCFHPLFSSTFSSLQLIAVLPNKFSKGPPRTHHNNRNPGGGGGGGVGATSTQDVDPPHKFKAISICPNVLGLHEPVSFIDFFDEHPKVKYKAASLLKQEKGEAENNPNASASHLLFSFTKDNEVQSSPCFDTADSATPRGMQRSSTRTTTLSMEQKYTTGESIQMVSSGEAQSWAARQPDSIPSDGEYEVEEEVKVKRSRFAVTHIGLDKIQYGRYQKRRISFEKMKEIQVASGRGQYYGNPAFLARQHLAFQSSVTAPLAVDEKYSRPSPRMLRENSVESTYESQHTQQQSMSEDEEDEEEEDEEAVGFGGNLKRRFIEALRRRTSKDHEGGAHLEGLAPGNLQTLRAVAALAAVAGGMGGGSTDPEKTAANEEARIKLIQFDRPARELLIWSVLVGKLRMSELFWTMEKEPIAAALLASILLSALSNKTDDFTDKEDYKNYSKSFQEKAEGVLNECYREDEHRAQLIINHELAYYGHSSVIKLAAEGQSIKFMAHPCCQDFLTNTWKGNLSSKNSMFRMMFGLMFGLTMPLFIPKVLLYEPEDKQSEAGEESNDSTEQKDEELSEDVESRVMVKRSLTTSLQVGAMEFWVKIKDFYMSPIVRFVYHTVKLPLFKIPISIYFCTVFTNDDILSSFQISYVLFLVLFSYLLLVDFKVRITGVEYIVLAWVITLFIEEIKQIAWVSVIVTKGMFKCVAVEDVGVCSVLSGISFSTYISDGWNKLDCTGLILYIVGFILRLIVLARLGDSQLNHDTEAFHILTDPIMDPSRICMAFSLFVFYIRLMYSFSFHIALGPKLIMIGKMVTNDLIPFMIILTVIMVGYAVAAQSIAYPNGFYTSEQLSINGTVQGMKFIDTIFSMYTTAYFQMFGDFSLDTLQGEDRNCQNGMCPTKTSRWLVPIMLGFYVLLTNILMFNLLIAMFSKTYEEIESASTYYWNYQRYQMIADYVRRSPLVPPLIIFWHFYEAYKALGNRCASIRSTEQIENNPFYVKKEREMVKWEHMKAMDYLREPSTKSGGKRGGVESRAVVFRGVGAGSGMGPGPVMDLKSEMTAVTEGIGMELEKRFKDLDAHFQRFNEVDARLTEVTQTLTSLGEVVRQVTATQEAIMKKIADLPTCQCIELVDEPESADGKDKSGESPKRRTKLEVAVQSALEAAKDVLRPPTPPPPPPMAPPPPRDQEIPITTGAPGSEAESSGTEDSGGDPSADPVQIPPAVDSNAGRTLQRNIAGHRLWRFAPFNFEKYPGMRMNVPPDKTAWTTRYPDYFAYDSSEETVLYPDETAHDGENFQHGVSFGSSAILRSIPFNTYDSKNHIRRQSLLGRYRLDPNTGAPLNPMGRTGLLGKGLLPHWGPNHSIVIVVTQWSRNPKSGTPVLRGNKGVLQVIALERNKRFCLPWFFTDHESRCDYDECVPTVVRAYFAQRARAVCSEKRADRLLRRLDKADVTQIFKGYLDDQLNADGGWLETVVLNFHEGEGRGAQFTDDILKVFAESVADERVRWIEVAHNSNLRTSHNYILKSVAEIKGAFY
Chain of Sm.TRPMPZQ (wild-type) (A0A5K4F0X5 entry or part of it): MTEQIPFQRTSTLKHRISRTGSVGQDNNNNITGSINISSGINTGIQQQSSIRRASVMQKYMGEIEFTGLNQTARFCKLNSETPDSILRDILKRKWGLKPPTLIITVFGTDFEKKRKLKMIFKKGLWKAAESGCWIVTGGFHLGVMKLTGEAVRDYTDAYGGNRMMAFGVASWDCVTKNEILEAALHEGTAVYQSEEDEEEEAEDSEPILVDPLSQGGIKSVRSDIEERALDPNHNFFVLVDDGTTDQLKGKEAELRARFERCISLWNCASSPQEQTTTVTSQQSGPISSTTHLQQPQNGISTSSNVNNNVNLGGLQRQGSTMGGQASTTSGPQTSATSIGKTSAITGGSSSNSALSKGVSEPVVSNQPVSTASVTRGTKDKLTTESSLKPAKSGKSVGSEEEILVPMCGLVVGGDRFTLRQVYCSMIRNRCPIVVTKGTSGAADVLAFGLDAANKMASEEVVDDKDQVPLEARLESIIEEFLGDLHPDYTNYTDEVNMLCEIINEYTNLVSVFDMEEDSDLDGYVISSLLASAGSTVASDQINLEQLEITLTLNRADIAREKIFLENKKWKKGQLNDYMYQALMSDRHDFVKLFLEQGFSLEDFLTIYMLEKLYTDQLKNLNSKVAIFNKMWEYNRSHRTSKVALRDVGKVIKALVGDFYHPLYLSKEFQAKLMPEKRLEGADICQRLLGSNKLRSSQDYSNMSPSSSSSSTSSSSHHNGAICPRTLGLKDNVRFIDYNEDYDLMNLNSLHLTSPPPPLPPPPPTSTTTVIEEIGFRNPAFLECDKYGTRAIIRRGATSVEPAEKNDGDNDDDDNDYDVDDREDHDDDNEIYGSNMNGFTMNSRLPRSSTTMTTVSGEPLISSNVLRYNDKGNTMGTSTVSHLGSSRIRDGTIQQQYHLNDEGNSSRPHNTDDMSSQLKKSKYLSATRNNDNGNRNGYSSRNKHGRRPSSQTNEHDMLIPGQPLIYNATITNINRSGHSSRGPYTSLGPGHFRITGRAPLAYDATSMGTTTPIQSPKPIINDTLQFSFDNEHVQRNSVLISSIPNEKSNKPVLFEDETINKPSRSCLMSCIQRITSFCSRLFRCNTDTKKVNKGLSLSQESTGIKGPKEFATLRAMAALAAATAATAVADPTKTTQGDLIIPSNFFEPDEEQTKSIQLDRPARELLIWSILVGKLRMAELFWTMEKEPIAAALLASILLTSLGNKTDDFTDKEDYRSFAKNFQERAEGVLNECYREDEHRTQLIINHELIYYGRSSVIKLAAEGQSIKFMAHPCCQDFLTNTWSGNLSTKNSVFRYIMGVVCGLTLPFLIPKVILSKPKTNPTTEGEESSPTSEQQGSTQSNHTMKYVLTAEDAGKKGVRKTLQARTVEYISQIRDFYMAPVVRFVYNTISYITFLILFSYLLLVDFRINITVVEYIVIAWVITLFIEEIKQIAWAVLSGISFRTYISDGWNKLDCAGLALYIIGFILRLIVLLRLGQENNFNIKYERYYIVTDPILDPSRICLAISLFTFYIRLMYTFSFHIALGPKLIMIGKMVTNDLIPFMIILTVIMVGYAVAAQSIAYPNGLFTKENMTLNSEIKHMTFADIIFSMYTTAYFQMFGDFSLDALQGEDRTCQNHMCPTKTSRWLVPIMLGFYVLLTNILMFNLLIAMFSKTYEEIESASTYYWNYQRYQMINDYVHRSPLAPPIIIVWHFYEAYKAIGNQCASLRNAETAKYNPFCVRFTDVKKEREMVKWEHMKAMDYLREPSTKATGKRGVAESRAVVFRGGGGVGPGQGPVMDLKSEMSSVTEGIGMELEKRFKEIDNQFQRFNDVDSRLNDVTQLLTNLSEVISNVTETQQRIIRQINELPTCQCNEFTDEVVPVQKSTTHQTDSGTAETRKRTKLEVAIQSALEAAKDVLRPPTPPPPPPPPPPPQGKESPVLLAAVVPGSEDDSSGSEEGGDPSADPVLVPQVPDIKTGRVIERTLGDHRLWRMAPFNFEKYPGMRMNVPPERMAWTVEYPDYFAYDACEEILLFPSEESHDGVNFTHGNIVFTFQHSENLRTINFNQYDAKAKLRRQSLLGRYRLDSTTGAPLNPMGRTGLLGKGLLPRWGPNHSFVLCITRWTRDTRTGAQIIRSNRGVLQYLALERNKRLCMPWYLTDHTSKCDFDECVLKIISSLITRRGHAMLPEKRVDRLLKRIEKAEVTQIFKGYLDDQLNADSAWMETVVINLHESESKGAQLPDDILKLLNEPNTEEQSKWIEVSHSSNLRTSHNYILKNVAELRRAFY

## Nc1ccc2c(c1)C1CN(C(=O)C3CCCCC3)CC(=O)N1CC2 (stereo not shown) [Compound 3, 9-NH2–PZQ]
Juvenile schistosomes
  number of juvenile worms with viability score 0: 38
  number of juvenile worms with viability score 1: 2
  number of juvenile worms with viability score 2: 14
  number of juvenile worms with viability score 3: 38
Sm.TRPMPZQ (wild-type); 0.001 to 100 μM
  EC50: 7.09 ± 0.18 µM
Sm.TRPMPZQ (wild-type); read-out: Bmax, wild-type Sm.TRPMPZQ activation
  Emax: 90 ± 1.31%
Sm.TRPMMCLZ
  activation of Sm.TRPMMCLZ: did not activate
Fh.TRPMPZQ
  activation of Fh.TRPMPZQ: did not activate
In vitro
  CC50 at 48 h: ~300 µM
[1]; HepG2 CC50 / female worm motility EC50, 48 h
  Selectivity Index (CC50/EC50), Female: >30
[1]
  Selectivity Index (CC50/EC50), Male: >67
[1]; human, 48 h
  CC50: > 300 µM
[2]
  parasite metabolic activity compared to the DMSO control group (XTT): significantly decreased
[3]; Schistosoma mansoni, 0 h, female adult worms, 0 h (immediately after addition), single experiment or geometric mean, read-out: Female worm motility inhibition (EC50)
  EC50: 8.36 µM
[3]; Schistosoma mansoni, 24 h, female adult worms, 24 h, single experiment or geometric mean, read-out: Female worm motility inhibition (EC50)
  EC50: 9.6 µM
[3]; Schistosoma mansoni, 24 h, female, 24 h, individual experiments, read-out: Female worm motility inhibition (EC50), values of independent experiments
  EC50: 9.04 µM
[3]; [4]
  EC50: 5.4 µM
[3]; Schistosoma mansoni, 48 h, female adult worms, 48 h, single experiment or geometric mean, read-out: Female worm motility inhibition (EC50)
  EC50: 9.9 µM
[3]; Schistosoma mansoni, 48 h, female, 48 h, individual experiments, read-out: Female worm motility inhibition (EC50), values of independent experiments
  EC50: 9.36 µM
[3]; [5]
  EC50: 4.5 µM
[3]; Schistosoma mansoni, 48 h, male, 48 h, individual experiments, read-out: Male worm motility inhibition (EC50), values of independent experiments
  EC50: 3.94 µM
[3]; Schistosoma mansoni, 72 h, female adult worms, 72 h, single experiment or geometric mean, read-out: Female worm motility inhibition (EC50)
  EC50: 11.2 µM
[3]; Schistosoma mansoni, 72 h, female, 72 h, individual experiments, read-out: Female worm motility inhibition (EC50), values of independent experiments
  EC50: 8.77 µM
[3]; [6]
  EC50: 3.5 µM
[3]; Schistosoma mansoni, 72 h, male, 72 h, individual experiments, read-out: Male worm motility inhibition (EC50), values of independent experiments
  EC50: 3.8 µM
[3]; female adult worms, 72 h, single experiment or geometric mean, read-out: Female worm motility inhibition (EC50)
  EC50: 11 µM
[3]; female, 24 h, individual experiments, read-out: Female worm motility inhibition (EC50), values of independent experiments
  EC50: 10.2 µM
[3]; female, 48 h, individual experiments, read-out: Female worm motility inhibition (EC50), values of independent experiments
  EC50: 10.5 µM
[3]; female, 72 h, individual experiments, read-out: Female worm motility inhibition (EC50), values of independent experiments
  EC50: 14.3 µM
[3]; male, 24 h, individual experiments, read-out: Male worm motility inhibition (EC50), values of independent experiments
  EC50: 8.1 µM and 5.61 µM and 3.44 µM
[3]; male, 48 h, individual experiments, read-out: Male worm motility inhibition (EC50), values of independent experiments
  EC50: 4.56 µM
[3]; male, 72 h, individual experiments, read-out: Male worm motility inhibition (EC50), values of independent experiments
  EC50: 3.29 µM and 3.58 µM
Eg.TRPMPZQ
  Emax: 138 ± 13.2%

## O=C(C1CCCCC1)N1CC(=O)N2CCc3ccc(-n4cc(COc5ccccc5)nn4)cc3C2C1 (stereo not shown) [Compound 5c]
Juvenile schistosomes
  activity against juvenile schistosomes (grouped score analysis): lacks activity
  number of juvenile worms with viability score 0: 19
  number of juvenile worms with viability score 1: 1
  number of juvenile worms with viability score 2: 4
  number of juvenile worms with viability score 3: 72
Sm.TRPMPZQ (wild-type)
  Bmax, wild-type Sm.TRPMPZQ activation: No activity
Sm.TRPMPZQ (wild-type); 0.001 to 100 μM
  EC50 for wild-type Sm.TRPMPZQ activation: failed to activate; also recorded: No activity
S. mansoni schistosomula
  hit classification (motility and phenotype scores): borderline
Sm.TRPMPZQ
  block of PZQ activation of Sm.TRPMPZQ (antagonist mode): failed to impact subsequent responses to PZQ
In vitro
  CC50 at 48 h: 88.1 µM
[1]
  Selectivity Index (CC50/EC50), Male: <0.9
[1]; HepG2 vs adult worms, 48 h
  Selectivity Index (SI), sex not specified: < 1
[2]
  parasite metabolic activity compared to the DMSO control group (XTT): no statistically significant differences
[3]; Schistosoma mansoni, 0 h, male adult worms, 0 h (immediately after addition), single experiment or geometric mean, read-out: Male worm motility inhibition (EC50)
  EC50: > 100 µM
[3]; [4]
  EC50: > 100 µM
[3]; [5]
  EC50: > 100 µM
[3]; [6]
  EC50: > 100 µM
Eg.TRPMPZQ
  EC50 for Eg.TRPMPZQ activation: No signal
  Emax: 7.63 ± 0.72%
